We go through one compound from patent publication US9012435B2, “Glucocorticoids attached to nitrate esters via an aromatic linker in position 21 and their use in ophthalmology” (Nicox S.A., priority 2008, dated 2015).

Series [1] has as its system New Zealand White rabbits. As to the kind of experiment: Electroretinogram (ERG) in ET-1 induced ischemia. The following applies: after ET-1 treatment; 0.5 mg (equivalent)/eye IVT.
Description: Twenty adult male New Zealand Albino rabbits weighing 2-2.5 Kg were used for the experiments. The animals were divided in two groups for the specific treatment chosen. The experimental procedures were conform to those of the Association for Research in Vision and Ophthalmology Resolution on the use of animals and in agreement with the Good Laboratory Practice for the use of animals and were conducted upon authorization of Italian regulation on protection of animals used for experimental and other scientific purpose (DM 116/1992) as well as with the European Union Regulations (OJ of ECL 358/1, Dec. 12, 1986). The rabbits were kept in individual cages, food and water was provided ad libitum. […]
The Electroretinogram (ERG) was performed in basal condition (T0), before the start of drug treatment (T2) and at the end of drug treatment (T6). […] The eyes were dilated by topical application of tropicamide (1%), adapted to darkness for at least 2 hours, and standard ERGs recorded in both eyes using corneal electrodes. […] The ERG signals were recorded using Retimax (CSO, Florence, Italy). The dark-adapted scotopic response (rod response) and scotopic flash response (photopic erg cone), were recorded. […] An average of three separate ERGs was determined for each eye. The amplitude (uV) of a- and b-waves were calculated for each step. […]
The subject of series [2] is Brown Norway rats. As to the kind of experiment: Steroid-induced intraocular pressure (IOP) elevation in rats after intravitreal injection. The following applies: for IOP increase: one week after injection, baseline 18 mm Hg.
Excerpt: Male Brown Norway rats (250-275 g; Charles River laboratory) were acclimated for a week before IOP measurements. Baseline IOP measurements with Tonolab Tonometer (Tiolat Inc) were done in conscious rats (Pease, M. E., et al J. Glaucoma, 15:512-519, 2006) before intravitreal injection of test compounds. Then the rats were anesthetized with isoflurane inhalation and a drop of 0.5% tetracaine was topically applied on the eyes. Pupils were dilated with 1% topical cyclopentolate hydrochloride and 2.5% phenylephrine HCl to see the needle to aim the intravitreal injection of test compounds. […] For example, to compare to fluocinolone acetonide at both 25 and 50 μg/eye, compound (1) was dosed at 42.4 and 84.7 μg/eye, respectively. The des-nitro analog of compound (1) was dosed at 39.1 μg/eye (equivalent for 25 μg FC). Control animals received vehicle.
Five measurements were averaged for each time point. IOP measurements were taken at one and two weeks after intravitreal injection of test compounds.
For series [3], the system named is New Zealand White rabbits. As to the kind of experiment: Intraocular pressure in endothelin-1 (ET-1) induced ischemia.
Description: Twenty adult male New Zealand Albino rabbits weighing 2-2.5 Kg were used for the experiments. The animals were divided in two groups for the specific treatment chosen. […] The rabbits were kept in individual cages, food and water was provided ad libitum. The animals were maintained on a 12-12 h light/dark cycle in a temperature controlled room (22°-23° C.).
Ischemia model of optic injury was obtained throughout by injection, twice a week, for 6 weeks, of endothelin-1 (ET-1) 250 nM, 500 μl of sterile saline, into the posterior vitreous body of both eyes, using a lachrymal cannula, under general anesthesia produced by tiletamine plus zolazepam (Zoletil 100, 0.05 mg/kg) plus xilazine (Xilor 2%, 0.05 ml/kg) i.m.
Fluocinolone acetonide (FC) (0.5 mg/eye in 100 μl of vehicle) or Compound (1) (0.5 mg equivalent/eye in 100 μl of vehicle) were instilled intravitreally (IVT) two weeks after the start of ET-1 treatment (T2), in one eyes, the same volume of vehicle was instilled in the other eye.
Intraocular pressure (TOP) was measured twice a using a Tono-Pen XL (Medtronic Solan. USA) as described by Maren's group (Exp. Eye Res. (1992) 55: 73-79; Exp. Eye Res. (1993) 57: 67-78) with a two-point standard pressure measurement.
The subject of series [4] is VEGF-induced leakage rat model. The experiment in a line: VEGF-induced retinal vascular leakage rat model (Evans blue). The format is in vivo. The following applies: 25 μg/eye intravitreal, VEGF 100 ng/eye, 18 hours after injection. As for the experimental part:
Pupils were dilated with 1% topical cyclopentolate hydrochloride to see the needle to guide the intravitreal injection. Recombinant rat vascular endothelial growth factor (VEGF; 100 ng/eye) or VEGF at 100 ng/eye plus test compounds were prepared in 0.5% carboxymethyl cellulose (CMC) in sterile saline and was injected into the vitreous with a 30-gauge needle (Xu, Q., et al. Invest. Ophthalmol. Vis. Sci., 42:789-794, 2001). The compounds of the invention were compared to corresponding steroid cores at equimolar doses. […] Control animals received vehicle. Compound (18) was similarly dosed alongside triamcinolone acetonide for comparison.
Retinal vascular leakage was measured as described previously (Xu, Q., et al. Invest. Ophthalmol. Vis. Sci., 42:789-794, 2001). After about 18 hours post injection of test compounds, rats were anesthetized with ketamine (80 mg/kg) and xylazine (4 mg/kg) IP. Then 45 mg/kg Evans blue (EB) was injected into the jugular vein. The dye was allowed to circulate for 2 hours. The chest cavity was opened and rats then perfused with 1% formalin in 0.5 M citrate buffer (pH 3.5, 37° C.) through the left ventricle. Retinas were carefully dissected from enucleated eyes, placed in pre-weighed Eppendorf tubes, dried in speed vacuum overnight and dry weights recorded. Evans blue was extracted by incubating each retina in 120 μl formamide for 18 hours at 70° C., centrifuged for 2 hours at 6000 rpm. Absorbance of 60 μl of extract was measured at 620 nm and background absorbance was determined at 740 nm. Net absorbance was calculated by subtracting the background 740 nm from that at 620 nm. Measurement of a standard curve of Evans blue in formamide was also done and Evans blue leakage expressed as μl/g/h was calculated as shown below: [EB(ng/ml)×120 (μl)×1000]/[dry weight retina (mg)×circulation time (h)×plasma EB(ng/ml)×100]

Series [5] deals with IL-6. The experiment in a line: IL-6 content in aqueous humor (ELISA), ET-1 induced ischemia. The format is in vivo, rabbit. The following applies: ET-1 treated rabbits; 0.5 mg (equivalent)/eye IVT. How it is done: (§1) Aqueous humor samples were withdrawn from both anterior and posterior chamber fluids of each eye before ET-1 administration (T0), before the administration of Compound (1) or fluorocinolone acetonide (T2), and at the end of treatments (T6). The same volume of saline were reintroduced every time. The aqueous humor samples were immediately frozen at −80° C. until use.
(§2) Tumor necrosis factor (TNFα) and interleukin 6 (IL-6) were determined in aqueous humor with a commercial kit using an ELISA method (Amersham Pharmacia Biotech). The minimum detectable concentrations were 0.10 pg/ml for IL-6 and TNFα. The interassay coefficient of variation was 0.7% for all assays.
Background: In an ELISA, binding on a coated surface is turned into a signal by an enzyme label.

Series [6] has as its system TNFα. As to the kind of experiment: TNFα content in aqueous humor (ELISA), ET-1 induced ischemia. In kind it is in vivo, rabbit. The following applies: ET-1 treated rabbits; 0.5 mg (equivalent)/eye IVT. How it is done: as §1, §2
Series [7] concerns isolated rabbit thoracic aorta preparations. The experiment in a line: Assay on vascular tone (vasorelaxation of methoxamine-precontracted aortic rings). The following applies: rabbit aortic rings precontracted with methoxamine 3 μM. As for the experimental part: The ability of the compounds of the invention to induce vasorelaxation in comparison to precursor compounds was tested in vitro in isolated rabbit thoracic aorta preparations (Wanstall J. C. et al., Br. J. Pharmacol., 134:463-472, 2001). Male New Zealand rabbits (1,8-2 Kg) were used. The animals were anaesthetized with sodium thiopental (50 mg/kg, iv), sacrificed by exsanguinations and then the thorax was opened and the aorta dissected. The aortas were placed immediately in Krebs-HEPES buffer (pH 7.4; composition mM: NaCl 130.0, Kcl 3.7, […] 14.9, KH2PO4 1.2, MgSO4.7H2O 1.2, Glucose 11.0, HEPES 10.0, CaCl2.2H2O 1.6) and cut into ring segments (4-5 mm in length). Each ring was placed in a 5 ml tissue bath filled with Krebs-HEPES buffer (37° C.) aerated with 95% O2 and 5% CO2 and was then attached to a force transducer (Grass FT03), connected to a BIOPAC MP150 System for measurement of the isometric tension^2. The preparations were allowed to equilibrate for 1 h at a resting tension of 2 g with changes of the buffer every 15 minutes and then stimulated by exposure to 90 mM KCl (3 times) with intervening washings. After equilibration, the rings were precontracted submaximally with methoxamine (3 μM) and, when the contraction reach a steady state a cumulative concentration-response curve to the test compounds was obtained. The time intervals between doses were based on the time needed to reach a full a steady state response.
Responses to test compounds were expressed as a percentage of residual contraction and plotted against concentration of test compound. EC50 values (where EC50 is the concentration producing 50% of the maximum relaxation to the test compound) were interpolated from these plots.

Series [8] relates to VEGF. As to the kind of experiment: VEGF content in aqueous humor, ET-1 induced ischemia. The format is in vivo, rabbit. The following applies: ET-1 treated rabbits; 0.5 mg (equivalent)/eye IVT.
Series [9] relates to ophthalmic artery. As to the kind of experiment: Ocular haemodynamics (Color Doppler Imaging, Pourcelot Resistance Index) in ET-1 induced ischemia. In kind it is in vivo, rabbit. As for the experimental part:
Haemodynamic evaluations were performed using an eco-color-doppler DynaView TM II SSD-1700 (Aloka Holding Europe AG, Milan, Italy). All animals underwent Color Doppler Imaging (CDI) investigation before ET-1 injection (T0), before the start of drug instillation (T2) and at the end of the drug treatment (T6). Special attention was devoted to the evaluation of ophthalmic and ciliary artery circulation. Blood flow velocities were measured for each vessel and the Pourcelot Resistance Index (RI) was calculated (Galassi F. et al., Acta Opht. Scand Suppl. (2000) 37-38).

Series [10] deals with retinal tissue. The experiment in a line: Retina protection: morphological analysis, ET-1 induced ischemia. In kind it is in vivo, rabbit. The following applies: long term ET-1 treatment; 0.5 mg (equivalent)/eye IVT. How it is done:
The eyes of each animal was enucleated, cornea and crystalline were removed and the eyes was paraformaldehyde-fixed. Then samples were dehydrated with increasing alcohol concentration (50°-75°-95°-100°). After 95° alcohol treatment, the eyes were divided into two parts following a longitudinal plain from cornea to insertion of optical nerve. Thus the samples were paraffin-embedded. Section 8 μm thick were stained with Haematoxylin-Eosin. Microscopical fields were registered by digitizing camera applied a light microscope with a 20× and 40× objective. On the digitized images was performed a morphological analysis of retinal tissue.

For the compound `CC1(C)O[C@@H]2C[C@H]3[C@@H]4C[C@H](F)C5=CC(=O)C=C[C@]5(C)[C@@]4(F)[C@@H](O)C[C@]3(C)[C@]2(C(=O)CO)O1` [FC, Fluocinolone acetonide], the “Photopic erg cone (amplitude)” value in series [1] is on record as 136.34 ± 11.98 μV. Further, the “IOP compared to compound (1) at 42.4 μg/eye (FIG. 4)” value in series [2] (25 μg/eye intravitreal) was “increase in IOP”. For the same compound, the results for the IOP increase in [2] (25 μg/eye intravitreal) and in [2] (50 μg/eye intravitreal) were 4 mm Hg and 3 mm Hg, respectively. Besides, the “IOP increase after two weeks” value in series [2] (25 and 50 μg/eye intravitreal, two weeks after injection) is reported as “maintained”. Further, the IOP in series [3] (ET-1, 0.5 mg (equivalent)/eye IVT given at T2) worked out at 13.00 ± 2.83 mmHG; in [3] (I week, 0.5 mg (equivalent)/eye IVT, ET-1 ischemia), 15.50 ± 0.71 mmHG; in series [3] (II week, 0.5 mg (equivalent)/eye IVT, ET-1 ischemia), 19.00 ± 0.00 mmHG; in [3] (III week, 0.5 mg (equivalent)/eye IVT, ET-1 ischemia) it was 19.00 ± 1.41 mmHG; in [3] (IV week, 0.5 mg (equivalent)/eye IVT, ET-1 ischemia) it was 20.80 ± 0.71 mmHG; in series [3] (V week, 0.5 mg (equivalent)/eye IVT, ET-1 ischemia), 22.20 ± 0.00 mmHG. Further, the IOP turned out to be 21.10 ± 0.00 mmHG in series [3] (VI week, 0.5 mg (equivalent)/eye IVT, ET-1 ischemia) and 13.50 ± 0.17 mmHG in [3] (basal, 0.5 mg (equivalent)/eye IVT given at T2). The “inhibition of VEGF-induced leakage” value in series [4] is 86.1%. Also, the “IL6 content in aqueous humor” value in [5] worked out at 16.82 ± 0.98 pg/mL. Moreover, the “TNFα content in aqueous humor” value in series [6] came to 20.76 ± 1.74 pg/mL. Besides, the “EC50 (concentration producing 50% of the maximum relaxation)” value in series [7] is “no effect”. Moreover, the “VEGF content in aqueous humor” value in [8] is 114.58 ± 5.61 pg/mL. Also, the “Resistence Index” value in series [9] (After 2 weeks (before drug instillation, T2)) is 0.45 ± 0.06; in series [9] (After 6 weeks (end of drug treatment), 0.5 mg (equivalent)/eye IVT) it was 0.60 ± 0.04; in series [9] (Basal), 0.45 ± 0.06. The “ET-1 induced morphological changes of retinal tissue” value in [10] is listed as “not effective”.
